Measurements reported in US20080233080A1, “Inulins, Levans, Fructans And Other Smaller-Than-Cellulose Termite Feeding Attractants, And Termite” (priority 2004, published 2008).
“And” between values parts separate entries of the source, which are not always exact repeats. Equal entries are not always repeated. “Also recorded” adds a separate entry of the source.

Key:
Reticulitermes spp. [1] = test: Diet consumption by groups of termites in no-choice and choice bioassay arenas; assay type: in vivo
Method: Subterranean Termite Collection. Five wild populations of Reticulitermes spp. were collected from fallen wood in forested areas of Fairfax County (N38° 43.29′ and W77° 30.93′), Montgomery County (N37° 12.46′ and W80° 24.47′), Rockbridge County (N37° 48.00′ and W 79° 25.00′), and Roanoke County (N37° 19.53′ and W79° 58.53′), Virginia. Termites were harvested by placing the infested wood into large storage bins (70 L; Sterlite®; Sterlite Corporation, Townsend, Mass.) on top of damp, recycled paper towels (Acclaim®; Fort James Corporation, Deerfield, Ill.). As the wood dried out the termites moved into the moist paper towels. The infested paper towels were then transferred to plastic storage containers (11.3 L; Rubbermaid, Wooster, Ohio) containing vermiculite (500 g; moistened 150% by weight (Lenz M., T. L. Amburgey, D. Zi-Rong, H. Kuhne, J. K. Mauldin, A. F. Preston, and M. Westcott, 1987, Interlaboratory studies on termite-wood decay fungi associations: I. Determination of maintenance conditions for several species of termites (Isoptera: Mastotermitidae, Termopsidae, Rhinotermitidae), Sociobiology, 13:1-56; Cherokee Vermiculite Horticultural Fine Cherokee Products, Jefferson City, Tenn.). Subterannean termite containers were stored in complete darkness (˜21° C. and 97% RH) until needed for testing. Subterranean termites were tested within one month after being collected from the field.
Termite Diet Preparation. Recycled brown paper toweling (Acclaim®) was cut into squares (35×35 mm) and used as a diet substrate. The diet substrates were placed into glass Pyrex Petri dishes (100×20 mm; Corning Glass Works, Corning, N.Y.) and dried overnight in a single wall, gravity convection, laboratory oven (60° C.; Blue M SW-17TA; Blue M Electric Company; Blue Island, Ill.). After 24 hours, each diet substrate was taken out of the oven, numbered in the corner with a pencil and weighed on a balance (Mettler AE163; Lab Tech, Inc.) to the nearest 0.1 mg. After weighing, certain diets were treated with radiochemicals. Because hexaflumuron cannot be stored at temperatures greater than 50° C., radioisotopes were only applied after the diets were oven dried. The weight of the isotopes on the diet after air drying was determined to be negligible.
Control Diets. Control diets were treated with the visual marker only. The visual marker was formulated by dissolving Nile Blue-A in acetone and applying a 150 μl aliquot of dye solution to each diet substrate. The final Nile Blue-A concentration on the diet was 0.1%.
^14C-hexaflumuron Diets. A stock solution of technical grade hexaflumuron, ^14C-hexaflumuron (0.5% total hexaflumuron concentration) and 0.1% Nile Blue-A was formulated in acetone. An aliquot (150 μl) of the solution was applied to each diet substrate so that each diet contained 0.27 μCi of the ^14C-hexaflumuron.
^3H-inulin Diets. A stock solution of the ^3H-inulin and 0.1% Nile Blue-A (1.95 mg) was formulated in acetone. An aliquot (150 μl) of the solution was applied to each diet substrate so that each diet contained […] of the ^3H-inulin. ^3H has a lower energy spectrum than ^14C, so ˜8× more ^3H-inulin was added to the diets than ^14C-hexaflumuron to facilitate radioisotope quantification process after termite consumption.
Bioassay Arenas: Consumption bioassays were performed in choice and non-choice bioassay arenas. Arena tests were used to evaluate termite consumption of hexaflumuron treated bait alone and in the presence of a competing food source.
No-Choice Bioassay. No-choice bioassay arenas were assembled by connecting two Petri dishes with Tygon tubing (inner diameter 3.2 mm, outer diameter 6.4 mm). Petri dishes were washed 4 times in tap water to eliminate static electricity. Tygon tubing was soaked in tap water for 3 hours and allowed to air dry prior to use. One Petri dish (95 mm×15 mm; Fisher Scientific) served as a termite housing chamber and was filled with moist sand (˜45 g). […]

[2] = test system: eastern subterranean termites; settings: in vivo; cited from earlier work
subterranean termites = subterranean termites fed hexaflumuron bait; cited from earlier work
Reticulitermes spp. [3] = test: Diet consumption by individual termites, radioisotope quantification by scintillation counting; assay type: in vivo; settings: for feeding preference of individual termites: choice test 14C-hexaflumuron and 3H-inulin
Method: Diet Consumption by Individual Termites. After mortality was recorded for a particular treatment/day, 20 surviving termites were randomly selected from each radioactive treatment arena for isotope analysis. Random selection was not limited to dyed termites. Non-dyed termites were also selected. The termites were thoroughly rinsed with distilled water three times to remove any radioactivity from the outside of the body. They were next placed on paper towels to remove excess water. Each rinsed, dried termite was placed into a separate microcentrifuge tube (1.5 ml; Fisher Brand), and the body was homogenized in 200 μl of distilled water. The homogenate was transferred into a glass scintillation vial (20 ml; Kimble Glass, Vineland, N.J.). Microcentrifuge tubes were rinsed three times with 200 μl of distilled water per rinse. Each rinse was added to the homogenate in the scintillation vial. An aliquot of scintillation cocktail (8 ml; Scintiverse® BD; Fisher Scientific, Fair Lawn, N.J.) was then added to each vial.
The amount of radioactivity contained within each sample was quantified by using a scintillation counter (Beckman Coulter, Inc.™ LS 6500, Fullerton, Calif.). The individual termite samples contained very low dpm counts. Therefore, sample vials containing only a single isotope (from no-choice tests) were counted for 10 minutes. However, sample vials that potentially could contain dual isotopes (from choice-tests) were counted for 20 minutes to improve the accuracy of the counts.
Background Radioactivity Measurements. After termite mortality had been recorded, 2 termites were selected at random from each no-choice, control arena. These termites were rinsed, homogenized, and prepared for scintillation counting as previously described. Control termites were counted in the scintillation counter for 10 minutes to record background radioactivity. Background radioactivity was measured for each treatment group (choice and no-choice) at both 2 d and 5 d. Background measurements also accounted for any quenching that occurred due to the termite body fragments occluding light transmission in the scintillation counter. Before the test data was analyzed, background radioactivity counts for a particular sample was subtracted from the sample's spectral peak (Traniello, J. F. A., R. B. Rosengaus and C. K. Levy, 1985, Single and double isotope labeling of social insect colonies, Entomol. Exp. Appl., 38:87-92; Suarez, M. E. and B. L. Thorne, 2000, Effects of food type and foraging distance on trophallaxis in the subterranean termite Reticulitermes virginicus (Isoptera: Rhinotermitidae), Sociobiology, 35: 487-498).
Radiolabel Counting using Dual Label Technique. Specialized procedures were required for analysis of radiolabeled samples containing both ^14C and ^3H. Due to the potential low/high counts and spillover of ^14C and ^3H in the counting window, a series of dilutions was made from extracted diets (with known amounts of activity) to correct for spillover. The range of activity values for ^14C and ^3H and a combination of the two isotopes within the samples was determined. Spillover correction curves were generated for the range of sample data and used to correct those samples where high levels of both ^14C and ^3H occurred and spillover was evident.
Quantification of radioactive isotopes from individual termite cadavers was used to determine how much a single termite consumed of ^14C-hexaflumuron diet in the presence of a competing food source. Mean consumption of ^14C-hexaflumuron diet in the no-choice test was compare with ^14C-hexaflumuron consumption in the choice test using GLM ANOVA with Least Squares adjustment for multiple comparisons of mean values. For all tests data was analyzed separately for 2 d and 5 d.
Finally, mean consumption of the two radioisotopes, ^14C-hexaflumuron and ^3H-inulin, in the choice tests were compared to determine whether termites preferred one diet over another. […]

Reticulitermes sp. = test: Inulin treated vs untreated paper towel diets placed on yellow pine termite harborages; assay type: in vivo; settings: average of 7 d
Method: Subterranean termites, Reticulitermes sp. were reared in the laboratory in Nunc dishes containing strips of yellow pine wood as a food resource and termite harborage. Inulin treated and untreated paper towel diets were weighed and then placed side by side on the top of the termite harborages (strips of yellow pine). Termites were allowed to forage for an average of 7 d. After the test period, the diets were removed, weighed and consumption of each towel diet was recorded as a percentage of total consumption of both paper towel diets.

[4] = choice test hexaflumuron and inulin diets, 2 d
[5] = choice test hexaflumuron and inulin diets, 5 d
[6] = choice test 14C-hexaflumuron and 3H-inulin diets, 5 d
[7] = choice test hexaflumuron and inulin diets, 5 d, listed as inulin

Q: For `O=C(NC(=O)c1c(F)cccc1F)Nc1cc(Cl)c(OC(F)(F)C(F)F)c(Cl)c1` [Hexaflumuron, N-(((3,5-dichloro-4-(1,1,2,2-tetrafluoroethoxy)phenyl)-amino)carbonyl)-2,6-difluorobenzamide], which “Hexaflumuron Consumption (mg) (Mean ± SEM)” value (Reticulitermes spp. [1]; choice test hexaflumuron and control diet, 2 d) is on record?
A: Its value is 1.6 ± 0.9a mg.

Q: What about the “Hexaflumuron Consumption (mg) (Mean ± SEM)” value (Reticulitermes spp. [1]; choice test hexaflumuron and control diet, 2 d, listed as hexaflumuron) of the same compound?
A: The value was 1.6 mg.

Q: What about the “Hexaflumuron Consumption (mg) (Mean ± SEM)” value (Reticulitermes spp. [1]; choice test hexaflumuron and control diet, 5 d) of the same compound?
A: The value was 3.2 ± 1.4a mg.

Q: What about the “Hexaflumuron Consumption (mg) (Mean ± SEM)” value (Reticulitermes spp. [1]; choice test hexaflumuron and control diet, 5 d, listed as hexaflumuron) of the same compound?
A: The value was 3.2 mg.

Q: And the “Consumption (mg) (Mean ± SEM)” value (Reticulitermes spp. [1]; [4])?
A: Its value is 1.0 ± 0.8a mg.

Q: What about the “Consumption (mg) (Mean ± SEM)” value (Reticulitermes spp. [1]; choice test hexaflumuron and inulin diets, 2 d, listed as hexaflumuron) of the same compound?
A: Its value is 1.0 mg.

Q: What about the “Consumption (mg) (Mean ± SEM)” value (Reticulitermes spp. [1]; [5]) of the same compound?
A: The value was 0.2 ± 0.1b mg and 0.2 ± 0.1 a mg.

Q: What about the “Consumption (mg) (Mean ± SEM)” value (Reticulitermes spp. [1]; choice test hexaflumuron and inulin diets, 5 d, listed as 14C-hexaflumuron) of the same compound?
A: Its value is 0.2 mg.

Q: And the “Consumption (mg) (Mean ± SEM)” value (Reticulitermes spp. [1]; choice test hexaflumuron and inulin diets, 5 d, listed as hexaflumuron)?
A: Its value is 0.2 mg.

Q: What about the “Hexaflumuron Consumption (mg) (Mean ± SEM)” value (Reticulitermes spp. [1]; no-choice test, 2 d, groups of 100 termite workers, 0.5% hexaflumuron diet) of the same compound?
A: Its value is 3.0 ± 0.7a mg.

Q: And the “Hexaflumuron Consumption (mg) (Mean ± SEM)” value (Reticulitermes spp. [1]; no-choice test, 2 d, groups of 100 termite workers, 0.5% hexaflumuron diet, listed as 14C-hexaflumuron)?
A: The value was 3 mg.

Q: What about the “Hexaflumuron Consumption (mg) (Mean ± SEM)” value (Reticulitermes spp. [1]; no-choice test, 2 d, groups of 100 termite workers, 0.5% hexaflumuron diet, listed as hexaflumuron) of the same compound?
A: The value was 3.0 mg.

Q: And the “Hexaflumuron Consumption (mg) (Mean ± SEM)” value (Reticulitermes spp. [1]; no-choice test, 5 d, groups of 100 termite workers, 0.5% hexaflumuron diet)?
A: Its value is 11.4 ± 3.9a mg.

Q: What about the “Hexaflumuron Consumption (mg) (Mean ± SEM)” value (Reticulitermes spp. [1]; no-choice test, 5 d, groups of 100 termite workers, 0.5% hexaflumuron diet, listed as 14C-hexaflumuron) of the same compound?
A: The value was 11.4 mg.

Q: What about the “Hexaflumuron Consumption (mg) (Mean ± SEM)” value (Reticulitermes spp. [1]; no-choice test, 5 d, groups of 100 termite workers, 0.5% hexaflumuron diet, listed as hexaflumuron) of the same compound?
A: The value was 11.4 mg.

Q: And the “mean half life within the body of a termite” value [2]?
A: The value was about 220 h.

Q: What about the LT50 (subterranean termites) of the same compound?
A: Its LT50 is about 26.6 days.

Q: What about the onset of toxicity (subterranean termites) of the same compound?
A: The onset of toxicity was “approximately 15 d”.

Q: What about the “consumption by an individual termite” value (Reticulitermes spp. [3]; choice test 14C-hexaflumuron and 3H-inulin diets, 2 d) of the same compound?
A: The value was 7.3 µg.

Q: And the “consumption by an individual termite” value (Reticulitermes spp. [3]; [6])?
A: The value was 2.3 µg.

Q: What about the “feeding preference of individual termites” value (Reticulitermes spp. [3]; 2 d) of the same compound?
A: The value was “did not prefer either diet”.

Q: And the “consumption by an individual termite” value (Reticulitermes spp. [3]; choice test competing with control diet, 2 d)?
A: Its value is 14.5 µg.

Q: What about the “consumption by an individual termite” value (Reticulitermes spp. [3]; choice test in presence of control diet, 5 d) of the same compound?
A: The value was 19.3 µg.

Q: What about the “consumption by an individual termite” value (Reticulitermes spp. [3]; no-choice test, 2 d) of the same compound?
A: Its value is 38.9 µg.

Q: And the “consumption by an individual termite” value (Reticulitermes spp. [3]; no-choice test, 5 d)?
A: Its value is 56.9 µg.

Q: Which “Consumption (mg) (Mean ± SEM)” value (Reticulitermes spp. [1]; [4]) does the source give for inulin here?
A: The value was 2.0 ± 0.6 mg.

Q: What about the “Consumption (mg) (Mean ± SEM)” value (Reticulitermes spp. [1]; [5]) of the same compound?
A: Its value is 6.0 ± 1.3 mg and 6.0 ± 1.3 b mg.

Q: What about the “Consumption (mg) (Mean ± SEM)” value (Reticulitermes spp. [1]; [7]) of the same compound?
A: The value was 6.0 mg.

Q: What about the “feeding preference of termite populations (consumption significantly greater than 50% of total)” value (Reticulitermes spp. [1]; [7]) of the same compound?
A: Its value is “preference for the inulin diet was indicated; also recorded: preference for the inulin treated bait”.

Q: And the “consumption of inulin treated bait relative to Hexaflumuron treated bait” value (Reticulitermes spp. [1]; choice test, 5 d, Table B)?
A: Its value is 30 times.

Q: And the “preferential consumption versus untreated towels and yellow pine wood” value (Reticulitermes sp.)?
A: Its value is “preferentially consumed inulin treated paper towels over untreated towels and yellow pine wood”.

Q: What about the “Termite Consumption Mean % ± SEM (percentage of total consumption of both paper towel diets)” value (Reticulitermes sp.; choice, in presence of yellow pine) of the same compound?
A: Its value is 64.7 ± 4.5%.

Q: What about the “consumption by an individual termite” value (Reticulitermes spp. [3]; [6]) of the same compound?
A: Its value is 19.4 µg.

Q: And the “feeding preference of individual termites” value (Reticulitermes spp. [3]; 2 d)?
A: Its value is “did not prefer either diet”.

Q: And the “feeding preference of individual termites” value (Reticulitermes spp. [3]; 5 d, listed as 3H-inulin)?
A: The value was “significant preference”.

Q: And the “feeding preference of individual termites” value (Reticulitermes spp. [3]; 5 d, listed as inulin)?
A: Its value is “significant preference for the inulin treated bait”.
